In patent publication US9670212B2, “Inhibitors of PI3K-delta and methods of their use and manufacture” (Exelixis, Inc., priority 2010, dated 2017) one finds IC50 data, which are given here for 22 compounds.

The structures appear in SMILES notation.

In this assay the target is PI3K delta (Homo sapiens (Human), UniProt O00329). Nature of the assay: Luciferase-coupled chemiluminescence kinase assay (KinaseGlo, ATP consumption). It is filed as biochemical. In a few lines: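 Kinase, compound and ATP (at or below KM) reacted 2 h at ambient temperature; remaining ATP detected by KinaseGlo luciferase chemiluminescence as percent ATP consumed. 10-point dose-response, curves fitted to give IC50.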
PI3K delta, sequence (O00329 whole entry): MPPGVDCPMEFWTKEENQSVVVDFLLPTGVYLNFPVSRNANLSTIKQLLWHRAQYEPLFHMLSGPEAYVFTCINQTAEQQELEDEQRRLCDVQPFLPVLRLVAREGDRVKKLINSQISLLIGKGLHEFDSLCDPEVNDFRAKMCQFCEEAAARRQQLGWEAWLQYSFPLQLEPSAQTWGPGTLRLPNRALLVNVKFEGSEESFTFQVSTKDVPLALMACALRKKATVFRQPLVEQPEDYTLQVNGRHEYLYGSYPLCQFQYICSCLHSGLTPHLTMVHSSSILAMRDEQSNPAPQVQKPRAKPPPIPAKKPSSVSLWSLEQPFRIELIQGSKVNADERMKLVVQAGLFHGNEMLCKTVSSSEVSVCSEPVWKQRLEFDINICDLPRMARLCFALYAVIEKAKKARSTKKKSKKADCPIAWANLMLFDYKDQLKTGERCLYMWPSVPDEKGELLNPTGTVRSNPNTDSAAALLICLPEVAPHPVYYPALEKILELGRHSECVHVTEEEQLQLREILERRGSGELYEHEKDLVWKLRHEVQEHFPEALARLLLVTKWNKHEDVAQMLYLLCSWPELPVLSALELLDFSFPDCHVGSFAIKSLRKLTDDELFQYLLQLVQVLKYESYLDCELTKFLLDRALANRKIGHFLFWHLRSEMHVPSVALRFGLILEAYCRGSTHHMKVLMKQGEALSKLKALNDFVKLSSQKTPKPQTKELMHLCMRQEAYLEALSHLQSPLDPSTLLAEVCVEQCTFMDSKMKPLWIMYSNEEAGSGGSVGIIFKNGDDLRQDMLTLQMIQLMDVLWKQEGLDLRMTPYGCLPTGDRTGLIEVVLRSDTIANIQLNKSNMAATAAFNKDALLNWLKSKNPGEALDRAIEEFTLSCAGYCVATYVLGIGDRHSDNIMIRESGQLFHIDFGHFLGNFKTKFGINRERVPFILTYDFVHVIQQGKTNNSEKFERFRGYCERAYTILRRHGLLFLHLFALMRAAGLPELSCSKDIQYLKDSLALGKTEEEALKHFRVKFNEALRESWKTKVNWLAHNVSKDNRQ
PI3K delta, sequence (P27986 whole entry partner): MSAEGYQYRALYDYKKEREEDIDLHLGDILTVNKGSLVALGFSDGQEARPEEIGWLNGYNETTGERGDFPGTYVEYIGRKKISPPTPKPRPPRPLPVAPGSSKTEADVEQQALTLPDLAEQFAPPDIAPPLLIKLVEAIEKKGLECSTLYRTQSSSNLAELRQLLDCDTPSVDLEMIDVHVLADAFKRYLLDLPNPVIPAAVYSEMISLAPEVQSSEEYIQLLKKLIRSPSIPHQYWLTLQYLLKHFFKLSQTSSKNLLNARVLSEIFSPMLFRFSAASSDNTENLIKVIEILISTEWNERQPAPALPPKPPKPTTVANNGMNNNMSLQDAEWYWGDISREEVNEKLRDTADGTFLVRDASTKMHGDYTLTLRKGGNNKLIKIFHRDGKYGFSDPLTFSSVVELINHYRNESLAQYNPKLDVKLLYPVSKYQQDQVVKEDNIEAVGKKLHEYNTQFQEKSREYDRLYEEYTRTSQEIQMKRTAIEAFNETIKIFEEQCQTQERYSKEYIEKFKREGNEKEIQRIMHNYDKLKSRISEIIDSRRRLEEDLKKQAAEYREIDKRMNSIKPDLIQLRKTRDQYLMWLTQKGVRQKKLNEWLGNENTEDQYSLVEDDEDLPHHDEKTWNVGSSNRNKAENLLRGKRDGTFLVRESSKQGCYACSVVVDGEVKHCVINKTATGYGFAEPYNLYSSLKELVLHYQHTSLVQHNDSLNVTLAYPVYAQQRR
For orientation: Kinase-Glo measures the ATP left after a reaction by luminescence.
For `Cc1ccccc1-c1c(Cn2cnc3c(N)ncnc32)nc2ccccc2c1C` [Compound 168, 9-{[4-methyl-3-(2-methylphenyl)quinolin-2-yl]methyl}-9H-purin-6-amine], the IC50 (in general, the concentration at which inhibition is half-maximal) lay within 500 to 1500 nM.
Under `Cc1ccccc1-c1c(Cn2cnc3ncnc(N)c32)nc2ccccc2c1C` [Compound 169, 7-{[4-methyl-3-(2-methylphenyl)quinolin-2-yl]methyl}-7H-purin-6-amine] stands 500 to 1500 nM; under `Cc1cccc2cc(Cn3cnc4c(N)ncnc43)c(N3CCCC3C)nc12` (stereo not shown) [Compound 170, 9-{[8-methyl-2-(2-methylpyrrolidin-1-yl)quinolin-3-yl]methyl}-9H-purin-6-amine], 50 to 250 nM; under `Cc1cccc2cc(Cn3cnc4c(N)ncnc43)c(N3CCCC3)nc12` [Compound 171, 9-[(8-methyl-2-pyrrolidin-1-ylquinolin-3-yl)methyl]-9H-purin-6-amine], 50 to 250 nM.
With `Cc1cccc2cc(Cn3cnc4c(N)ncnc43)c(N3CCNCC3)nc12` [Compound 172, 9-[(8-methyl-2-piperazin-1-ylquinolin-3-yl)methyl]-9H-purin-6-amine] the figure was 50 to 250 nM.
For the compound `Cc1cccc2cc(Cn3cnc4c(N)ncnc43)c(N3CCN(C)CC3)nc12` [Compound 173, 9-{[8-methyl-2-(4-methylpiperazin-1-yl)quinolin-3-yl]methyl}-9H-purin-6-amine], the IC50 was in the range of 50 to 250 nM.
Under `Cc1ccccc1-n1c(CNC(=O)c2ccnc(N)c2)nc2cccc(C)c2c1=O` [Compound 174, 2-amino-N-{[5-methyl-3-(2-methylphenyl)-4-oxo-3,4-dihydroquinazolin-2-yl]methyl}pyridine-4-carboxamide] stands 500 to 1500 nM; under `Cc1ccccc1-n1c(CNC(=O)c2nccnc2N)nc2cccc(C)c2c1=O` [Compound 175, 3-amino-N-{[5-methyl-3-(2-methylphenyl)-4-oxo-3,4-dihydroquinazolin-2-yl]methyl}pyrazine-2-carboxamide], below 50 nM; under `Cc1ccccc1-n1c(CNC(=O)c2cccnc2N)nc2cccc(C)c2c1=O` [Compound 176, 2-amino-N-{[5-methyl-3-(2-methylphenyl)-4-oxo-3,4-dihydroquinazolin-2-yl]methyl}pyridine-3-carboxamide], 500 to 1500 nM.
On to `Cc1cccc2cc(Cn3cnc4c(N)ncnc43)c(N3CCOCC3)nc12` [Compound 177, 9-[(8-methyl-2-morpholin-4-ylquinolin-3-yl)methyl]-9H-purin-6-amine], for which the IC50 lay in the range of 50 to 250 nM.
Under `Cc1ccccc1-c1cc2ccccc2nc1Cn1cnc2ncnc(N)c21` [Compound 178, 7-{[3-(2-methylphenyl)quinolin-2-yl]methyl}-7H-purin-6-amine] stands 50 to 250 nM; under `Cc1ccccc1-c1cc2ccccc2nc1Cn1cnc2c(N)ncnc21` [Compound 179, 9-{[3-(2-methylphenyl)quinolin-2-yl]methyl}-9H-purin-6-amine], 500 to 1500 nM.
Compound `Cc1cccc(-c2nc3c(C)cccc3cc2Cn2cnc3c(N)ncnc32)c1C` [Compound 180, 9-{[2-(2,3-dimethylphenyl)-8-methylquinolin-3-yl]methyl}-9H-purin-6-amine] had an IC50 of 500 to 1500 nM.
With `Cc1cccc2cc(Cn3cnc4c(N)ncnc43)c(-c3ccccc3C(F)(F)F)nc12` [Compound 182, 9-({8-methyl-2-[2-(trifluoromethyl)phenyl]quinolin-3-yl}methyl)-9H-purin-6-amine] the figure was 50 to 250 nM; with `Cc1cccc(-c2nc3c(C)cccc3cc2Cn2cnc3c(N)ncnc32)c1` [Compound 183, 9-{[8-methyl-2-(3-methylphenyl)quinolin-3-yl]methyl}-9H-purin-6-amine], 250 to 500 nM.
In turn, `COCCOc1cccc(-c2nc3c(C)cccc3cc2Cn2cnc3c(N)ncnc32)c1` [Compound 184, 9-{[8-methyl-2-(3-{[2-(methyloxy)ethyl]oxy}phenyl)quinolin-3-yl]methyl}-9H-purin-6-amine] came in with an IC50 of 250 to 500 nM.
The compound `COc1cccc(-c2nc3c(C)cccc3cc2Cn2cnc3c(N)ncnc32)c1` [Compound 185, 9-({8-methyl-2-[3-(methyloxy)phenyl]quinolin-3-yl}methyl)-9H-purin-6-amine] came in with an IC50 of 250 to 500 nM.
Under `Cc1cccc2cc(Cn3cnc4c(N)ncnc43)c(-c3ccccc3Cl)nc12` [Compound 187, 9-{[2-(2-chlorophenyl)-8-methylquinolin-3-yl]methyl}-9H-purin-6-amine] stands 50 to 250 nM; under `Cc1ccccc1-c1nc2c(C)cccc2cc1CSc1ncnc2[nH]cnc12` [Compound 188, 8-methyl-2-(2-methylphenyl)-3-[(9H-purin-6-ylthio)methyl]quinoline], 50 to 250 nM.
In turn, `Cc1ccccc1-c1nc2c(C)cccc2cc1Cn1cnc2c(N)ncnc21` [Compound 189, 9-{[8-methyl-2-(2-methylphenyl)quinolin-3-yl]methyl}-9H-purin-6-amine] showed an IC50 of 50 to 250 nM.
With `Cc1ccccc1-c1nc2ccccc2nc1Cn1cnc2c(N)ncnc21` [Compound 190, 9-{[3-(2-methylphenyl)quinoxalin-2-yl]methyl}-9H-purin-6-amine] the figure was 500 to 1500 nM; with `Cc1ccccc1-c1nc2ccccc2cc1Cn1cnc2c(N)ncnc21` [Compound 191, 9-{[2-(2-methylphenyl)quinolin-3-yl]methyl}-9H-purin-6-amine], 500 to 1500 nM.
